Experimental data taken from patent US20090053187A1 (priority 2005, published 2009).
Values joined by “and” are separate entries in the source; they are usually repeats but may differ in a detail not shown here. Equal values may be shown once.

Assays:
[1] = test system: Bacillus anthracis 71/12 (Tsenkovsky vaccine II); set-up: species or system outbred white mice; conditions: mouse, in vivo
STI-1 = assay type: cell-based
STI-PRTS = assay type: cell-based
Bacillus anthracis STI-1 = test system: Bacillus anthracis STI-1; set-up: species or system Mice of CBA line; conditions: mouse, in vivo

lyzozyme
Death of animal on day 2 [1]: 1
Death of animal on day 3 [1]: 3
Death of animal on day 6 [1]: 0
Death of animal on day 7 [1]: 0
Number of perished/Number of infected [1]: 4/5
mortality [1]: 80%

tetracycline [Tc]
Zone of culture growth delay at using discs with antibiotics (STI-1): 7 mm
Zone of culture growth delay at using discs with antibiotics (STI-PRTS): 0 mm

C[C@H]1c2cccc(O)c2C(=O)C2=C(O)[C@]3(O)C(=O)C(C(N)=O)=C(O)[C@@H](N(C)C)[C@@H]3[C@@H](O)[C@@H]21 [doxycycline]
Death of animals among those taken for the experiment (Bacillus anthracis STI-1): 3/3 and 1/3 and 0/3

ampicillin
Zone of culture growth delay at using discs with antibiotics (STI-1): 4 mm
Zone of culture growth delay at using discs with antibiotics (STI-PRTS): 0 mm
